Experiment: Human HepG2 cell viability assay in 384 well format
Format: toxicity, cell-based
Design: dose 125 nL, time 70.5 hour; cytotoxicity at 70.5 h: concentration not given beside the values
Conditions: HepG2 cells, read-out: Inhibition

Row | Compound | cytotoxicity at 70.5 h [%]
1 | Cc1nc(N2CCCC2)nc2c1CCN(C(=O)CC1CCCC1)CC2 | -9.31
2 | Cc1nc(N2CCOCC2)nc2c1CCN(C(=O)C1CC1)CC2 | -13.2
3 | Cn1cc(CN2CC[C@H]3OCC[C@@H](C(=O)NC4CCCC4)[C@@H]3C2)cn1 | -17.5
4 | Cc1nc(N2CCOCC2)nc2c1CCN(C(=O)C1CCCCC1)CC2 | 0.0722
5 | Cc1nc(CN2C(=O)CC[C@@H]3[C@H]2CCN3C(=O)C2CCCO2)cs1 (stereo partly drawn) | -8.01
6 | Cc1nc(N2CCCC2)nc2c1CCN(C(=O)C(C)C)CC2 | -15.8
7 | Cc1nc(N2CCCC2)nc2c1CCN(C(=O)N(C)C)CC2 | -16.7
8 | CC(C)CN1C[C@H]2CCN(C(=O)NC3CCCC3)CC[C@H]2S1(=O)=O | -9.06
9 | COCCN1CC[C@H]2OCC[C@@H](C(=O)Nc3cccnc3)[C@@H]2C1 | 53
10 | CN1CC2(CCNCC2)COc2ccccc2S1(=O)=O | -2.93
11 | Cn1cc(CN2CC[C@]3(C[C@H](OCc4ccccn4)CO3)C2)cn1 | -22.4
12 | CC(C)CNC(=O)[C@H]1C[C@@H]2CN(C(=O)Nc3ccc(F)cc3)C[C@H]1O2 | -26.4
13 | CNc1ncc2c(n1)CN(c1cccc(OC)c1)C2=O | -13.9
14 | CNc1ncc2c(n1)CN(Cc1ccc(Cl)cc1)C2=O | -9.81
15 | CNc1ncc2c(n1)CN(CCc1ccccc1)C2=O | -12.7
16 | CCNc1ncc2c(n1)CN(c1ccc(OC(F)(F)F)cc1)C2=O | -15.6
17 | CCNc1ncc2c(n1)CN(c1ccc(Cl)cc1)C2=O | -14.1
18 | Cc1nn(C)c2cnn(Cc3ccc(C(=O)NCC4CC4)o3)c12 | -10.2
19 | CCn1nc(C)c2c1cnn2CCNS(=O)(=O)c1ccccc1 | -6.47
20 | CCn1nc(C)c2c1cnn2CCNS(=O)(=O)c1cccs1 | 4.54
21 | Cc1cc(NC(=O)CCn2nc(C)c3ccccc32)n(C)n1 | -1.96
22 | CCn1nc(C)c2ncnc(NCCN3CCOCC3)c21 | -3.9
23 | CC(C)NC(=O)c1nnc2ccc(N3CCOCC3)cc2n1 | -5.91

Row | Compound | cytotoxicity at 70.5 h [%]
24 | CCN1C(=O)C(C)(C)c2cc(NC(=O)c3ccn(CC)n3)ccc21 | -19.5
25 | CCn1nc(C)c(C(=O)Nc2ccc3c(c2)C(C)(C)C(=O)N3C)c1C | -0.0352
26 | CSc1cccc(NC(C)C(=O)Nc2nccs2)c1 (stereo not drawn) | 6.07
27 | Clc1cccc(Cl)c1CNCCOc1ccccn1 | 11.6
28 | CCn1nc(C)c2nc(C)nc(N(C)Cc3ccco3)c21 | -21.8
29 | CCn1nc(C)c2nc(C)nc(NCCCn3cccn3)c21 | -7.44
30 | CCCc1nc(NCCCOC)c2c(n1)c(C)nn2CC | 18.7
31 | CCCc1nc(N2CCCCCC2)c2c(n1)c(C)nn2CC | -11.6
32 | CCCc1nc(N2CCSCC2)c2c(n1)c(C)nn2CC | -13.1
33 | Cc1nn(C)c2c(NCCCn3cccn3)nc(C3CC3)nc12 | -5.95
34 | Cc1nn(C)c2c(N3CCSCC3)nc(C3CC3)nc12 | -4.86
35 | CCn1nc(C)c2nc(C(C)C)nc(NCC(=O)N3CCOCC3)c21 | 5.24
36 | Cc1nn(C)c2c(N(C)Cc3ccco3)nc(C3CC3)nc12 | 15.5
37 | CCn1nc(C)c2nc(C(C)C)nc(NCCCn3cccn3)c21 | -4.58
38 | CCn1nc(C)c2nc(C(C)C)nc(N3CCC(O)CC3)c21 | -15.2
39 | CCn1nc(C)c2nc(C(C)C)nc(N3CCN(C)CC3)c21 | 29.8
40 | CCn1nc(C)c2nc(C(C)C)nc(N3CCCC3)c21 | 15.3
41 | CCn1nc(C)c2nc(C(C)C)nc(NC)c21 | 20.9
42 | NCc1n[nH]c(-c2ccc(F)cc2)n1 | -0.714
43 | CC(C)n1cc(S(=O)(=O)N2CCCCCC2)cn1 | -2.52
44 | COCC(=O)NCCCn1ncc2c(C)cccc21 | -5.2
45 | O=C(NCCCn1ccnc1)C1CCC(=O)N1Cc1cccs1 (stereo not drawn) | -9.7
46 | CCOCCCNC(=O)c1cc(C)nc(N2CCCCC2)n1 | -6.17

Row | Compound | cytotoxicity at 70.5 h [%]
47 | COc1cccc(CNC(=O)c2cc(C)nc(N3CCCC3)n2)c1 | 17.7
48 | O=C(NCCCO)c1nnsc1-c1ccccc1 | -0.82
49 | CCOCCCNC(=O)c1cc(OC)c2ccoc2c1 | -1.75
50 | CCOc1cc(C(=O)N2CCCC2)cc2occc12 | -8.39
51 | CCn1ccc(NS(=O)(=O)c2cccc(COC)c2)n1 | 8.56
52 | COCc1cccc(S(=O)(=O)NCc2cnn(C)c2C)c1 | -9.83
53 | COCc1cccc(S(=O)(=O)N2CCSCC2)c1 | 14
54 | CCn1ccc(NS(=O)(=O)c2cccc(CSC)c2)n1 | 3.12
55 | CSCc1cccc(S(=O)(=O)NCCO)c1 | 0.997
56 | COCCCNS(=O)(=O)c1cccc(CSC)c1 | -16.6
57 | CCn1ccc(NC(=O)CCc2c(C)noc2C)n1 | -7.45
58 | CCn1cc(NC(=O)C2CCC(=O)N2Cc2ccc(C)o2)cn1 (stereo not drawn) | -2.42
59 | O=C(O)CSc1nccc(-c2ccc3c(c2)OCO3)n1 | -7.09
60 | Cc1nc(N2CCOCC2)ncc1-c1cc(O)nc(N2CCCC2)n1 | -2.77
61 | Cc1ccccc1CNCc1cc(Cl)ccc1O | -11.5
62 | CCc1cc(=O)n(CC(=O)N2CCCCC2)c(-c2cccc(F)c2)n1 | -9.52
63 | CCN(CC)C(=O)CSc1nc2cc(C)nc-2c(O)n1Cc1ccco1 | -10.9
64 | CC(=O)N1CCN(C(=O)c2[nH]nnc2Nc2ccccc2F)CC1 | 8.05
65 | c1cnc(-c2nn3c(CN4CCCCC4)nnc3s2)cn1 | -6.5
66 | CCc1ccccc1N1CC(c2nnc(N)s2)CC1=O (stereo not drawn) | -13.1
67 | Cc1cc(C(=O)NCc2c(C)nn(C)c2C)nc(N2CCOCC2)n1 | -1.14
68 | c1ccc(-c2nn3c(CN4CCOCC4)nnc3s2)nc1 | -3.21
69 | c1cnc(-c2nn3c(CN4CCOCC4)nnc3s2)cn1 | -10.2

Row | Compound | cytotoxicity at 70.5 h [%]
70 | CCN(CC)Cc1nnc2sc(C(C)Oc3ccccc3)nn12 (stereo not drawn) | 4.82
71 | Cc1ncc2c(n1)CCCC2NC(=O)c1ccc(Cn2cccn2)cc1 (stereo not drawn) | -5.6
72 | O=C(Cc1ccsc1)N1CCC(c2noc(-c3cccnc3)n2)CC1 | -2.37
73 | CCCN1C[C@H](NC(=O)c2ccccc2F)[C@@H](c2ccc(OC)cc2)C1 | 0.779
74 | NC(=O)C1CCN(C(=O)CCn2c(C(F)(F)F)cc3cccnc32)CC1 | 3.01
75 | O=C(c1ccc(O)nc1)N1Cc2ccccc2OC2(CCOCC2)C1 | 0.0352
76 | O=C(CCn1c(C(F)(F)F)cc2cccnc21)N1CCC(O)CC1 | 2.54
77 | O=C(c1cncnc1)N1Cc2ccccc2OC2(CCOCC2)C1 | 2.98
78 | Cn1nccc1C(=O)N1Cc2cc(Cl)ccc2OC2(CCOCC2)C1 | 2.41
79 | CCc1cc(C(=O)N2Cc3ccccc3OC3(CCOCC3)C2)on1 | 8.33
80 | C[C@H](NC(=O)C1CC1)c1nc2cc(-c3ccc(F)cc3)ncn2n1 | 2.87
81 | O=C(CN1CCCC1)N1CCCC(c2cc(=O)n3c(n2)CCCCC3)C1 (stereo not drawn) | 2.75
82 | O=C(Cc1ccsc1)N1CCC(c2noc(-c3ccncc3)n2)CC1 | -0.304
83 | COc1ccccc1C1=NOC(CC2(C(=O)O)CCOCC2)C1 (stereo not drawn) | 19.1
84 | c1ccc(-c2cc(CNCCCN3CCCCC3)c3nnnn3c2)cc1 | -0.978
85 | CCNC(=O)C1(CC2CC(c3ccccc3OC)=NO2)CCOCC1 (stereo not drawn) | -0.996
86 | CC(C)CNC(=O)C1(Cc2ccccc2-c2ccccc2)CCNC1 (stereo not drawn) | -3.17
87 | CN(C)CC(=O)N1C[C@@H]2CC[C@H](Oc3ccccc3)[C@@H]2C1 | -0.0251
88 | COCCOCC(=O)N1C[C@@H]2CC[C@H](Oc3ccccc3)[C@@H]2C1 | -3.37
89 | Cc1cc(CCC2CN(Cc3ccccc3C(=O)O)CCO2)ncn1 (stereo not drawn) | -3.08
90 | CN(C)CCN(C)C(=O)c1ccccc1-n1cc(CN(C)C)cn1 | -0.093
91 | Cc1cc2c(=O)n3c(nc2s1)CCN(Cc1c[nH]cn1)CC3 | 1
92 | c1ccc(-c2cc(CNCCCC3CCOC3)c3nnnn3c2)cc1 (stereo not drawn) | 5.9

Row | Compound | cytotoxicity at 70.5 h [%]
93 | CC(C)OCCCN(Cc1ccncc1)Cc1cc(F)cc(F)c1 | 58.6
94 | Cc1cccc(CN2CCC3(CC2)CN(c2cnn(C)c2)C(=O)CO3)n1 | 41.4
95 | O=C1CC[C@H]2[C@H](CCN2C(=O)C2CCOC2)N1Cc1ccncc1 (stereo partly drawn) | -20.6
96 | CCC1=N[C@@]2(CC[C@@H]3CN(CC4CC4)C[C@@H]32)C(=O)N1CC | -14
97 | Cn1cc(N2CC3(CCN(Cc4ccoc4)CC3)OCC2=O)cn1 | -1.7
98 | COC[C@@H]1CCC[C@]12CN(Cc1ccco1)CCO2 | -1.04
99 | CC1=N[C@@]2(CC[C@@H]3CN(CC(=O)N(C)C)C[C@@H]32)C(=O)N1CC1CC1 | -2.19
100 | O=C1CC[C@H]2[C@H](CCN2C(=O)C2CCCO2)N1Cc1cccnc1 (stereo partly drawn) | -6.99
101 | CN(C)CC(=O)N1CCc2sc(C(=O)NCC3CC3)cc21 | -12.2
102 | CCCNC(=O)c1cc2c(s1)CCN2C(=O)CN(C)C | -14.4
103 | COC[C@@H]1CCC[C@@]12CN(Cc1ccc(C)s1)CCO2 | 48.9
104 | Cc1ncnc2c1CCN(C(=O)Cc1ccccn1)CC2 | -12.9
105 | O[C@@H]1CCN(CC2CC2)[C@H]1Cc1ccccc1 | -23
106 | CCc1ncnc2c1CCN(C(=O)c1ccccn1)CC2 | -24.1
107 | O=C(c1ccoc1)N1CCOCC2(CCN(C3CCOCC3)C2)C1 (stereo not drawn) | -2.14
108 | COCCN1CC[C@@H](OC)[C@@H]1Cc1ccccc1 | 15.6
109 | c1cc(CN2CCC3(CC2)COC(COCC2CC2)C3)ccn1 (stereo not drawn) | -16.7
110 | CCc1ccc(CN2CCC3(CC2)CN(c2cnn(C)c2)C(=O)CO3)o1 | -8.17
111 | O=C(Nc1cccnc1)[C@@H]1CCO[C@@H]2CCN(Cc3cccnc3)C[C@@H]21 | -22.1
112 | CO[C@@H]1CCN(Cc2ccccn2)[C@@H]2CN(Cc3ccco3)C[C@@H]21 | 32.3
113 | COc1cc2c(cc1CN1CCn3c(CO)nnc3C1)CCC2 | 8.8
